# Assay results published in US9684238B2, “Fluorene-type compound, photopolymerization initiator comprising said fluorene-type compound, and photosensitive composition containing said photopolymerization initiator” (TOKYO OHKA KOGYO CO., LTD., priority 2012, dated 2017).
# Test: Evaluation 3: 20-μm pattern line width of black photosensitive composition
# Conditions: black composition (carbon black, cardo resin), initiator 0.4 mmol
# Procedure, shortened: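 Composition spin-coated on glass to 1.0 μm dry thickness, dried 90 °C for 10 min, exposed at 10–80 mJ/cm^2 via high-pressure mercury lamp through 20 μm negative mask, developed in 0.1 wt % TMAH, rinsed. Line width of remaining cured film measured; larger width means higher sensitivity.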
compound,measurement,setting,value
CCCC1(CCC)c2cc(C(=O)c3ccccc3C)ccc2-c2ccc(/C(C)=N/OC(C)=O)cc21 [Compound 4],20-μm pattern line width,10 mJ/cm^2,19.4
same,20-μm pattern line width,20 mJ/cm^2,20.0
same,20-μm pattern line width,40 mJ/cm^2,21.3
same,20-μm pattern line width,60 mJ/cm^2,22.1
same,20-μm pattern line width,80 mJ/cm^2,22.4
